Test results from patent US20240415819A1, “MACROCYCLIC COMPOUNDS AS PROTEASOME SUBUNIT BETA TYPE-5 INHIBITORS” (Lead Discovery Center GmbH, priority 2021, published 2024).
Where two headings read alike, the source gives them in different places.

Key:
Format in all cases: cell-based
[1] = test system: A549 (human lung carcinoma cell line); assay: Glo assay of A549 cells (Table 3; ProteasomeGlo plating scheme)
How it was run: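 IC50 values (nM) come from a cell-based chymotrypsin-like Proteasome-Glo luminescence assay. Compound exposure ran 105 min at 37° C.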

[2] = test system: B cell; assay: B cell diff. (Table 4, method not given)
[3] = test system: hPMBC; assay: Chymotrypsin-like ProteasomeGlo assay in hPBMC; conditions: Homo sapiens; read-out: Pglo hPBMC
How it was run: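 IC50 derived from luminescent chymotrypsin-like proteasome activity (Suc-LLVY-Glo substrate plus luciferin detection reagent). Measured after 105 min compound exposure at 37 °C, 5% CO2. Cells were human B cells purified from buffy-coat PBMC.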

[4] = Homo sapiens, A549 cells, read-out: PGLo A549

Row | IC50 [1, 4] [nM] | IC50 [3] [nM] | SMILES | also measured
1 |  |  | Cc1ccc2cc1CNC(=O)[C@H](CCc1ccccc1)NC(=O)[C@@H](Nc1ncccn1)CC(=O)N1CCCC(CCO2)C1 (stereo partly drawn) [Compound 34, (9S,12S)-5^4-methyl-9-phenethyl-12-(pyrimidin-2-ylamino)-4-oxa-7,10-diaza-1(3,1)] | IC50 ([1]; Homo sapiens, A549, read-out: PGLo A549 [nM]): < 100 nM; IC50 ([2]; B-cell): < 100 nM
2 | < 100 |  | CC(=O)N[C@H]1CC(=O)N2CCCC(CCOc3ccc(C)c(c3)CNC(=O)[C@H](CCc3ccccc3)NC1=O)C2 (stereo partly drawn) [Compound 33, N-((9S,12S)-5^4-methyl-8,11,14-trioxo-9-phenethyl-4-oxa-7,10-diaza-1(3,1)-piperidina-5(1,3)-benzenacyclotetradecaphane-12-yl)acetamide] | IC50 ([2]; B-cell): < 100 nM
3 | < 100 |  | Cc1ccc2cc1CNC(=O)[C@H](CCc1ccccc1)NC(=O)[C@@H](NC(=O)Cc1ccccc1)CC(=O)N1CCCC(CCO2)C1 (stereo partly drawn) [Compound 29, N-((9S,12S)-5^4-methyl-8,11,14-trioxo-9-phenethyl-4-oxa-7,10-diaza-1(3,1)-piperidina-5(1,3)-benzenacyclotetradecaphane-12-yl)-2-phenylacetamide] | IC50 ([2]; B-cell): < 100 nM
4 | 100 to 500 |  | Cc1ccc2cc1CNC(=O)[C@H](CCc1ccccc1)NC(=O)[C@@H](NC1COC1)CC(=O)N1CCCC(CCO2)C1 (stereo partly drawn) [Compound 35, (9S,12S)-5^4-methyl-12-(oxetan-3-ylamino)-9-phenethyl-4-oxa-7,10-diaza-1(3,1)-piperidina-5(1,3)-benzenacyclotetradecaphane-8,11,14-trione] | IC50 ([2]; B-cell): < 100 nM
5 |  |  | Cc1ccc2cc1CNC(=O)C(CCc1ccccc1)NC(=O)C(NC(=O)CCc1ccccc1)CC(=O)N1CCCC(CCO2)C1 [Compound 30, N-((9S,12S)-5^4-methyl-8,11,14-trioxo-9-phenethyl-4-oxa-7,10-diaza-1(3,1)-piperidina-5(1,3)-benzenacyclotetradecaphane-12-yl)-3-phenylpropanamide] | IC50 ([1]; A549 cells, read-out: PGLo A549): < 100 nM; IC50 [2]: < 100 nM
6 | < 100 | 100 to 500 | Cc1ccc2cc1CNC(=O)C(CCc1ccc(S(=O)(=O)O)cc1)NC(=O)[C@@H](NC(=O)OCc1ccccc1)CC(=O)N1CCCC(CCO2)C1 (stereo partly drawn) [Compound 509, 4-(2-((12S)-12-(((benzyloxy)carbonyl)amino)-5^4-methyl-8,11,14-trioxo-4-oxa-7,10-diaza-1(3,1)-piperidina-5(1,3)-benzenacyclotetradecaphane-9-yl)ethyl)benzenesulfonic acid] | 
7 | 1000 to 5000 | 500 to 1000 | Cc1ccc2cc1CNC(=O)[C@H](CCc1ccccc1)NC(=O)[C@@H](NC(=O)OCc1ccccc1)CCCC(=O)NCCCCO2 [Compound 322, benzyl ((12S,15S)-1^4-methyl-8,13, 16-trioxo-15-phenethyl-2-oxa-7,14,17-triaza-1(1,3)-benzenacyclooctadecaphane-12-yl)carbamate] | 
8 | 100 to 500 | 100 to 500 | Cc1ccc2cc1CNC(=O)[C@H](CCc1ccccc1)NC(=O)[C@@H](NC(=O)CC1=NN(c3ccccc3)C(=O)C1)CC(=O)N1CCCC(CCO2)C1 (stereo partly drawn) [Compound 334, N-((9S,12S)-5^4-methyl-8,11,14-trioxo-9-phenethyl-4-oxa-7,10-diaza-1(3,1)-piperidina-5(1,3)-benzenacyclotetradecaphane-12-yl)-2-(5-oxo-1-phenyl-4,5-dihydro-1H-pyrazol-3-yl)acetamide] | 
9 | < 100 | < 100 | Cc1ccc2cc1CNC(=O)[C@H](CCc1ccccc1)NC(=O)[C@@H](NC(=O)Cc1nnc(N)s1)CC(=O)N1CCCC(CCO2)C1 (stereo partly drawn) [Compound 310, 2-(5-amino-1,3,4-thiadiazol-2-yl)-N-((9S,12S)-54-methyl-8,11,14-trioxo-9-phenethyl-4-oxa-7,10-diaza-1(3,1)-piperidina-5(1,3)-benzenacyclotetradecaphane-12-yl)acetamide] | 
10 | 1000 to 5000 | 500 to 1000 | Cc1ccc2cc1CNC(=O)[C@H](CCc1ccccc1)NC(=O)[C@@H](NC(=O)OCc1ccccc1)CCCC(=O)N1CCCC3(CC(C3)O2)C1 [Compound 283, benzyl ((7S,10S)-34-methyl-6,9,14-trioxo-7-phenethyl-2-oxa-5,8-diaza-15(3,1)-piperidina-3(1,3)-benzena-1(1,3)-cyclobutanapentadecaphane-10-yl)carbamate] | 
11 | > 5000 | 1000 to 5000 | CC(=O)N[C@H]1CCC(=O)N2CC3CC(Oc4ccc(C)c(c4)CNC(=O)[C@H](CCc4ccccc4)NC1=O)C3C2 (stereo partly shown) [Compound 299, N-(3^4-methyl-6,9,13-trioxo-7-phenethyl-2-oxa-13,5,8-triaza-1(6,3)-bicyclo[3.2.0]heptana-3(1,3)-benzenacyclotridecaphane-10-yl)acetamide] | 
12 | < 100 | < 100 | Cc1n[nH]c(CC(=O)N[C@H]2CC(=O)N3CCCC(CCOc4ccc(C)c(c4)CNC(=O)[C@H](CCc4ccccc4)NC2=O)C3)n1 (stereo partly drawn) [Compound 332, 2-(3-methyl-1H-1,2,4-triazol-5-yl)-N-((9S,12S)-5^4-methyl-8,11,14-trioxo-9-phenethyl-4-oxa-7,10-diaza-1(3,1)-piperidina-5(1,3)-benzenacyclotetradecaphane-12-yl)acetamide] | 
13 | 100 to 500 | < 100 | CC(=O)N[C@H]1CC(=O)N2CCCC(CCOc3ccc(C)c(c3)CNC(=O)C(c3cn[nH]c3)NC1=O)C2 (stereo partly drawn) [Compound 562, N-((12S)-5^4-methyl-8,11,14-trioxo-9-(1H-pyrazol-4-yl)-4-oxa-7,10-diaza-1(3,1)-piperidina-5(1,3)-benzenacyclotetradecaphane-12-yl)acetamide] | 
14 | > 5000 | < 100 | Cc1cc2cc(c1C)CNC(=O)C(c1cnn(C)c1)NC(=O)CCC(=O)N1CCCC(CCO2)C1 (stereo not shown) [Compound 355, 5^4,5^5-dimethyl-9-(1-methyl-1H-pyrazol-4-yl)-4-oxa-7,10-diaza-1(3,1)-piperidina-5(1,3)-benzenacyclotetradecaphane-8,11,14-trione] | 
15 | 100 to 500 | < 100 | Cc1ccc2cc1CNC(=O)[C@H](CCc1ccccc1)NC(=O)[C@@H](NC(=O)OCc1ccccc1)CCC(=O)N1CCC(CO2)C1 (stereo partly drawn) [Compound 349, benzyl ((8S,11S)-4^4-methyl-7,10,14-trioxo-8-phenethyl-3-oxa-6,9-diaza-1(3,1)-pyrrolidina-4(1,3)-benzenacyclotetradecaphane-11-yl)carbamate] | 
16 | < 100 | < 100 | COC(C(=O)N[C@H]1CC(=O)N2CCCC(CCOc3ccc(C)c(c3)CNC(=O)[C@H](CCc3ccccc3)NC1=O)C2)c1ccc(N)cc1 (stereo partly drawn) [Compound 326, 2-(4-aminophenyl)-2-methoxy-N-((9S,12S)-5^4-methyl-8,11,14-trioxo-9-phenethyl-4-oxa-7,10-diaza-1(3,1)-piperidina-5(1,3)-benzenacyclotetradecaphane-12-yl)acetamide] | 
17 | 100 to 500 | 100 to 500 | Cc1ccc2cc1CNC(=O)C(CCc1ccccc1)NC(=O)[C@@H](NC(=O)OCc1ccccc1)CC(=O)N1CCCC(CCO2)C1 (stereo partly drawn) [Compound 503, benzyl ((12S)-9-phenethyl-5^4-methyl-8,11,14-trioxo-4-oxa-7,10-diaza-1(3,1)-piperidina-5(1,3)-benzenacyclotetradecaphane-12-yl)carbamate] | 
18 | < 100 | < 100 | CC(=O)N[C@H]1CC(=O)N2CCCC(CCOc3ccc(C)c(c3)CNC(=O)C(c3cc(C)n(C)n3)NC1=O)C2 (stereo partly drawn) [Compound 561, N-((12S)-9-(1,5-dimethyl-1H-pyrazol-3-yl)-5^4-methyl-8,11,14-trioxo-4-oxa-7,10-diaza-1(3,1)-piperidina-5(1,3)-benzenacyclotetradecaphane-12-yl)acetamide] | 
19 | < 100 | < 100 | CC(=O)N[C@H]1CC(=O)N2CCCC(CCOc3ccc(C)c(c3)CNC(=O)C(c3cn(C)cn3)NC1=O)C2 (stereo partly drawn) [Compound 557, N-((12S)-5^4-methyl-9-(1-methyl-1H-imidazol-4-yl)-8,11,14-trioxo-4-oxa-7,10-diaza-1(3,1)-piperidina-5(1,3)-benzenacyclotetradecaphane-12-yl)acetamide] | 
20 | < 100 | < 100 | Cc1ccc2cc1CNC(=O)C(CCc1ccc(C3(C)COC3)cc1)NC(=O)[C@@H](NC(=O)OCc1ccccc1)CC(=O)N1CCCC(CCO2)C1 (stereo partly drawn) [Compound 510, benzyl ((12S)-5^4-methyl-9-(4-(3-methyloxetan-3-yl)phenethyl)-8,11,14-trioxo-4-oxa-7,10-diaza-1(3,1)-piperidina-5(1,3)-benzenacyclotetradecaphane-12-yl)carbamate] | 
21 | 100 to 500 | < 100 | CC(=O)N[C@H]1CC(=O)N2CCCC(CCOc3ccc(C)c(c3)CNC(=O)C(c3cnn(-c4ccccc4)c3)NC1=O)C2 (stereo partly drawn) [Compound 559, N-((12S)-5^4-methyl-8,11,14-trioxo-9-(1-phenyl-1H-pyrazol-4-yl)-4-oxa-7,10-diaza-1(3,1)-piperidina-5(1,3)-benzenacyclotetradecaphane-12-yl)acetamide] | 
22 | 500 to 1000 | < 100 | Cc1ccc2cc1CNC(=O)C(c1cnn(C)c1)NC(=O)CCCCC(=O)N1CCCC(CCO2)C1 (stereo not shown) [Compound 356, 5^4-methyl-9-(1-methyl-1H-pyrazol-4-yl)-4-oxa-7,10-diaza-1(3,1)-piperidina-5(1,3)-benzenacyclohexadecaphane-8,11,16-trione] | 
23 | 100 to 500 | 100 to 500 | Cc1ccc2cc1CNC(=O)[C@H](CCc1ccccc1)NC(=O)[C@@H](NC(=O)c1ccc3cc(N)ccc3c1)CC(=O)N1CCCC(CCO2)C1 (stereo partly drawn) [Compound 339, 6-amino-N-((9S,12S)-5^4-methyl-8,11,14-trioxo-9-phenethyl-4-oxa-7,10-diaza-1(3,1)-piperidina-5(1,3)-benzenacyclotetradecaphane-12-yl)-2-naphthamide] | 
